TGI and GI50 data for 20 compounds are collected here from PubChem BioAssay (NCI).

Some test systems named below: HCT-116 colon; HOP-92 NSCLC; HT29 colon; K-562 leukemia; MALME-3M melanoma; NCI-H23 lung; OVCAR-3 ovarian; OVCAR-8 ovarian; A498 renal.
What all share (assay): NCI-60 cell line screen, 48 h

“And” between values parts separate entries of the source, which are not always exact repeats. Identical values can stand only once.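 Each compound was tested at five concentrations against cells in 96-well plates for 48 hours. Abbreviation: GI50, concentration required for 50% inhibition of growth. The concentration for full growth arrest is given as TGI.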

Consider `COc1ccc(C2C3=C(COC3=O)Oc3cc4c(cc32)OCO4)cc1` (stereo unspecified), for which the TGI in the test with HCT-116 colon was above 100 µM; in the test on HOP-92 NSCLC it was 68.1 µM; in the test on HT29 colon, 22.5 µM; in the test with K-562 leukemia, above 100 µM; with MALME-3M melanoma, above 100 µM; with NCI-H23 lung, above 100 µM. For the same compound, the TGI in the test on OVCAR-3 ovarian was 41.3 µM; with OVCAR-8 ovarian it was above 100 µM.
For the compound `C=C1C(=O)O[C@H]2[C@H]1CC/C(COC(=O)NCc1cc(OC)cc(OC)c1)=C\CC[C@@]1(C)O[C@@H]21`, the GI50 in the test on A498 renal was 2.11 µM; in the test with HCT-116 colon, 0.771 µM; in the test on HOP-92 NSCLC, 1.42 µM; with HT29 colon, 1.2 µM; in the test on K-562 leukemia it was 1.56 µM; with MALME-3M melanoma, 1.86 µM. Also, the GI50 with NCI-H23 lung is 1.84 µM; in the test on OVCAR-3 ovarian, 1.01 µM; in the test with OVCAR-8 ovarian it was 1.6 µM. Moreover, the TGI worked out at 5.8 µM with A498 renal; 2.06 µM in the test on HCT-116 colon; 3.18 µM with HOP-92 NSCLC; 2.96 µM in the test with HT29 colon; 5.94 µM in the test with K-562 leukemia; 3.83 µM in the test with MALME-3M melanoma. For the same compound, the TGI in the test with NCI-H23 lung was found to be 4.32 µM; in the test on OVCAR-3 ovarian, 2.31 µM; in the test with OVCAR-8 ovarian it was 3.95 µM.
As to `O=C(C=Nc1ccccc1C(=O)[O-])c1cccs1.O=C(C=Nc1ccccc1C(=O)[O-])c1cccs1.[Zn+2]`, the TGI with A498 renal was above 100 µM; with HCT-116 colon, above 100 µM; with HOP-92 NSCLC, 64 µM; in the test with HT29 colon it was above 100 µM; in the test with K-562 leukemia it was 88 µM; with MALME-3M melanoma, above 10 µM. The TGI was above 100 µM in the test on NCI-H23 lung, 29.1 µM in the test on OVCAR-3 ovarian and above 100 µM with OVCAR-8 ovarian.
As for `CCCN1C(=O)CNC(=O)c2[nH]cnc21`, the TGI in the test with A498 renal, with HCT-116 colon, in the test with HOP-92 NSCLC, in the test with HT29 colon, in the test with K-562 leukemia and with MALME-3M melanoma was above 100 µM in each case. In addition, the TGI with NCI-H23 lung, in the test with OVCAR-3 ovarian and in the test with OVCAR-8 ovarian was above 100 µM each time.
Consider `O=C(Cc1ccccc1)NS(=O)(=O)c1ccccc1`, for which the TGI in the test with A498 renal, with HCT-116 colon, in the test on HOP-92 NSCLC, with HT29 colon, in the test with K-562 leukemia and with MALME-3M melanoma was above 100 µM each time. Also, the TGI in the test on NCI-H23 lung, with OVCAR-3 ovarian and in the test on OVCAR-8 ovarian was above 100 µM throughout.
Turning to `CCOC(=O)C(C(=O)OCC)=c1sc(=C(C(=O)OCC)C(=O)OCC)s1`, the TGI in the test on HOP-92 NSCLC, in the test with HT29 colon, in the test with K-562 leukemia, in the test with MALME-3M melanoma, in the test with NCI-H23 lung and with OVCAR-3 ovarian was above 100 µM in each case. The compound further displayed a TGI with OVCAR-8 ovarian above 100 µM.
In the case of `C[CH2][Sn]([CH2]C)([O]C(=O)c1ccc(F)cc1)[O][Sn]([CH2]C)([CH2]C)[O]C(=O)c1ccc(F)cc1`, the GI50 was 16.4 µM in the test on A498 renal; above 100 µM with HCT-116 colon; 19.1 µM with HOP-92 NSCLC; above 100 µM with HT29 colon; 20.1 µM in the test on K-562 leukemia; 16.9 µM with MALME-3M melanoma. Besides, the GI50 with NCI-H23 lung was 41 µM; with OVCAR-3 ovarian it was above 100 µM; with OVCAR-8 ovarian, above 100 µM. Moreover, the TGI in the test with A498 renal is 30 µM; in the test with HCT-116 colon it was above 100 µM; in the test on HOP-92 NSCLC it was 59 µM; in the test on HT29 colon it was above 100 µM; in the test on K-562 leukemia it was 78.6 µM; in the test with MALME-3M melanoma it was 32 µM. The TGI in the test on NCI-H23 lung, in the test with OVCAR-3 ovarian and in the test on OVCAR-8 ovarian was above 100 µM each time.
For the compound `O=NN(CCCl)C(=O)N[C@H]1CCCC[C@@H]1Cl`, the TGI with A498 renal, in the test on HCT-116 colon, in the test with HOP-92 NSCLC, in the test with HT29 colon, with K-562 leukemia and in the test on MALME-3M melanoma was above 100 µM each time. Further, the TGI in the test with NCI-H23 lung, in the test with OVCAR-3 ovarian and with OVCAR-8 ovarian was above 100 µM each time.
Consider `COC(C)(C)[C@H](O)C(O)CC(C)[C@@H]1CCC23CC12CCC1[C@@]2(C)CCC(OC(C)=O)C(C)(C)C2CC(OC2OC(COC(C)=O)C(O)C(O)C2O)[C@]13C` (stereo partly specified), for which the GI50 in the test with A498 renal was 17 µM; with HCT-116 colon it was 4.78 µM; in the test with HOP-92 NSCLC, 4.37 µM; in the test on HT29 colon, 1.83 µM; with K-562 leukemia, 4.68 µM; in the test on MALME-3M melanoma, 12.8 µM. Further, the values for the GI50 in the test on NCI-H23 lung, in the test on OVCAR-3 ovarian and in the test with OVCAR-8 ovarian were 11.3 µM, 4.26 µM and 6.13 µM, respectively. In addition, the TGI with A498 renal was 18.7 µM and 34.7 µM; in the test with HCT-116 colon, 8.67 µM and 13.4 µM; with HOP-92 NSCLC, 11.6 µM and 16.9 µM; in the test on HT29 colon, 2.49 µM and 3.67 µM; in the test on K-562 leukemia, 10.6 µM and 21.4 µM; in the test with MALME-3M melanoma, 17.1 µM and 26 µM. The TGI is 16 µM and 25.2 µM in the test with NCI-H23 lung; 10.8 µM and 15.9 µM with OVCAR-3 ovarian; 14 µM and 20.7 µM with OVCAR-8 ovarian.
Turning to `Cn1nc2ccccc2cc1=O`, the TGI in the test with A498 renal, in the test with HCT-116 colon, in the test on HOP-92 NSCLC, in the test with HT29 colon, in the test on K-562 leukemia and in the test on MALME-3M melanoma was above 100 µM each time. Also, the TGI in the test with NCI-H23 lung, in the test with OVCAR-3 ovarian and in the test with OVCAR-8 ovarian was above 100 µM each time.
With `CCCCCCCCCCCCC(CCCCCCCCCCCC)OP(=O)(O)O`, the TGI in the test with A498 renal was 52.8 µM; with HCT-116 colon, above 100 µM; with HOP-92 NSCLC, above 100 µM; in the test with HT29 colon, above 100 µM; with K-562 leukemia, above 100 µM; in the test on MALME-3M melanoma it was above 100 µM. Besides, the TGI with NCI-H23 lung, in the test with OVCAR-3 ovarian and in the test on OVCAR-8 ovarian was above 100 µM in each case.
Turning to `Cc1ccc(NC(=O)CC2C(=O)Nc3ccccc3S2=O)c(C)c1` (stereo unspecified), the TGI with A498 renal was 61.3 µM; in the test with HCT-116 colon it was 38.3 µM; with HOP-92 NSCLC, 29.8 µM; with HT29 colon, 20.4 µM; in the test on K-562 leukemia, above 87.1 µM; in the test on MALME-3M melanoma, above 68.2 µM. Also, the values for the TGI with NCI-H23 lung, in the test with OVCAR-3 ovarian and in the test with OVCAR-8 ovarian were 32.8 µM, 23.2 µM and 34.1 µM, respectively.
Turning to `FC(F)(F)c1cccc(C2SCc3nc4ccccc4n32)c1` (stereo unspecified), the TGI was above 100 µM with HCT-116 colon; 32.2 µM in the test with HOP-92 NSCLC; above 100 µM in the test on HT29 colon; above 100 µM with K-562 leukemia; above 100 µM in the test with MALME-3M melanoma; above 100 µM with NCI-H23 lung. The TGI with OVCAR-3 ovarian and with OVCAR-8 ovarian was above 100 µM in each case.
Regarding `O=C(O)[C@@H](NS(=O)(=O)c1ccc([N+](=O)[O-])cc1)c1ccccc1`, the TGI in the test on A498 renal, in the test on HOP-92 NSCLC, in the test with HT29 colon, in the test on K-562 leukemia, with MALME-3M melanoma and with NCI-H23 lung was above 100 µM in each case. For the same compound, the TGI in the test on OVCAR-3 ovarian and in the test on OVCAR-8 ovarian was above 100 µM each time.
As to `CCOC(=O)NC1CC2CCC1(OC)C=C2C` (stereo unspecified), the TGI in the test on A498 renal, with HCT-116 colon, with HOP-92 NSCLC, in the test on HT29 colon, in the test on K-562 leukemia and with MALME-3M melanoma was above 100 µM in each case. Besides, the TGI in the test on NCI-H23 lung, with OVCAR-3 ovarian and with OVCAR-8 ovarian was above 100 µM in each case.
For the compound `FC(F)(F)c1nc(-c2ccccc2)oc1Sc1oc(-c2ccccc2)nc1C(F)(F)F`, the TGI with A498 renal was above 100 µM; in the test with HCT-116 colon, above 100 µM; in the test with HOP-92 NSCLC it was 94.6 µM; in the test on HT29 colon, above 100 µM; in the test with K-562 leukemia it was above 100 µM; in the test with MALME-3M melanoma it was above 100 µM. Moreover, the TGI in the test with NCI-H23 lung, with OVCAR-3 ovarian and with OVCAR-8 ovarian was above 100 µM throughout.
With `CCCCCCCCCCCCCCCCCC[N+](C)(C)Cc1ccc(C[N+](C)(C)CCCCCCCCCCCCCCCCCC)cc1`, the TGI in the test with A498 renal was 91.7 µM; in the test with HCT-116 colon it was 32.5 µM; with HOP-92 NSCLC it was 24.8 µM; in the test on HT29 colon it was 38.6 µM; with K-562 leukemia, above 100 µM; with MALME-3M melanoma, above 100 µM. Also, the TGI in the test with NCI-H23 lung was determined as 18 µM; in the test with OVCAR-3 ovarian, 40.6 µM; in the test with OVCAR-8 ovarian, 30.5 µM.
As for `C=C[C@H]1C=Cc2c(OC)cccc2[C@@H]1COP1(=S)NC(C)C(c2ccccc2)O1` (stereo partly specified), the TGI in the test with HCT-116 colon, in the test with HT29 colon, in the test on K-562 leukemia, in the test with NCI-H23 lung, in the test with OVCAR-3 ovarian and with OVCAR-8 ovarian was above 100 µM in each case.
Consider `COC1CC(OC)C(O)C(CO)O1` (stereo unspecified), for which the TGI in the test with HCT-116 colon, with HT29 colon, in the test on K-562 leukemia, in the test with MALME-3M melanoma, in the test with NCI-H23 lung and in the test with OVCAR-3 ovarian was above 100 µM in each case. In the test with OVCAR-8 ovarian, this compound came in with a TGI above 100 µM.
In the case of `COC(=O)Cc1cc(=O)n2c([nH]c3ccccc32)c1C#N`, the TGI in the test with A498 renal, in the test with HCT-116 colon, in the test on HT29 colon, in the test on K-562 leukemia, in the test on MALME-3M melanoma and in the test on NCI-H23 lung was above 100 µM in each case. Moreover, the TGI in the test on OVCAR-3 ovarian and with OVCAR-8 ovarian was above 100 µM each time.
